Literature values as cited in article PMC10969742, “A Phase I Study of the Oral Dual-Acting Pan-PI3K/mTOR Inhibitor Bimiralisib in Patients with Advanced Solid Tumors” (Cancers, 2024).

Design: method as in PMID 28490463
Details: intermittent versus daily dosing; cited from earlier work

Q: For `Nc1nc2cc(-c3ccc4ncc(C(=O)N5CCOCC5)n4c3)ccc2o1` [TAK-117], which “Safety profile of intermittent dosing” value is on record?
A: Its value is “acceptable safety profile”.
